{
  "source": "ChEMBL document CHEMBL4138296",
  "about": "“Nonacidic Chemotype Possessing N-Acylated Piperidine Moiety as Potent Farnesoid X Receptor (FXR) Antagonists” (ACS Med Chem Lett, 2018)",
  "molecular_target": "T1, Oxysterols receptor LXR-beta (Homo sapiens) (UniProt P55055)",
  "T1 sequence (whole entry)": "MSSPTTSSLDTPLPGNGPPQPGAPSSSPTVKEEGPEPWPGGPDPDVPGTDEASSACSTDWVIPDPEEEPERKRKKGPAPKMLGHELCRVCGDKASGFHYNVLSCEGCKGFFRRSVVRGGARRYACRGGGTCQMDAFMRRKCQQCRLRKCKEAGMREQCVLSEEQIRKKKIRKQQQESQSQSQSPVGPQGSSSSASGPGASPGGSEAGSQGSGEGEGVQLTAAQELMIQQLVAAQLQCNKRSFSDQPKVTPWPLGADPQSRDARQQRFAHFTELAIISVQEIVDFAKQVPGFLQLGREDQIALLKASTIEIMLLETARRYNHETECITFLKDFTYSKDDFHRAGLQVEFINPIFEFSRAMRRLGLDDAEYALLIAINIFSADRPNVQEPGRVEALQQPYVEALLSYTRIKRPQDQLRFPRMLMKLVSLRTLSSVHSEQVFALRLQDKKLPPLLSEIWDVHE",
  "test": "Antagonist activity at LXRbeta (unknown origin) assessed as inhibition of TO901317-induced response at 1 uM by luciferase reporter gene assay",
  "note": "The source made the active and inactive calls. The calls are words filed in the database; no cut-off is given here.",
  "data": [
    {"smiles": "Cc1ccc2nc([C@H](CC3CCN(C(=O)C(C)C)CC3)N3C(=O)CN(c4ccc(Oc5ccccc5)cc4)C3=O)n(C)c2c1", "values": [
      {"measurement": "inhibition", "value": "inactive"}
    ]}
  ]
}
